Results filed as inconclusive are left out. Calls of active or inactive are those of the source.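 Rule for the calls: active = fitted curve crosses a set inhibition level at a dose up to twice the top tested dose; inconclusive = flat curve with moderate inhibition, or an unreliable curve fit; inactive = the rest, including signal rising instead of falling.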
Assay: TNFa-induced NF-kB reporter signal decrease – HEK293 LMP1 reporter cells, dry powder, set 2, selectivity assay for EBV LMP1 NF-kB inhibitor project, dose response (AID 624369)
Conditions: HEK293 LMP1 TES2 NF-kB luciferase reporter, 16 h; at 16 µM (top of the series)

Row | Structure (SMILES) | activity change, negative = inhibition
1 | C[C@@H]1CN([C@H](C)CO)C(=O)Cc2cc(NC(=O)Cc3ccccc3)ccc2O[C@@H]1CN(C)Cc1ccc(C(F)(F)F)cc1 | 23.7% (inactive)

Same assay, conditions: HEK293 LMP1 TES2 NF-kB luciferase reporter, 16 h; at 30 µM (top of the series)

Row | Structure (SMILES) | activity change, negative = inhibition
2 | C[C@H](NC(=O)C[C@@H]1C=C[C@H](NC(=O)Cc2ccccn2)[C@H](CO)O1)c1ccccc1 | -0.606% (inactive)
3 | Cc1noc(C)c1S(=O)(=O)Nc1ccc2c(c1)C(=O)N([C@@H](C)CO)C[C@H](C)[C@H](CN(C)Cc1ccc(C(F)(F)F)cc1)OCCCC[C@@H](C)O2 | 83.8% (inactive)

Same assay, conditions: HEK293 LMP1 TES2 NF-kB luciferase reporter, 16 h; at 35 µM (top of the series)

Row | Structure (SMILES) | activity change, negative = inhibition
4 | CO[C@@H]1CN(C)C(=O)c2ccc(NC(C)=O)cc2OC[C@@H](C)N(Cc2ccccc2F)C[C@H]1C | 3.06% (inactive)
5 | C[C@H](CO)N1C[C@H](C)[C@@H](CN(C)S(=O)(=O)c2cccc(F)c2)Oc2ncc(C#CC3CCCCC3)cc2C1=O | 1.93% (inactive)
6 | CN(C)c1ccc2c(c1)[C@@H]1C[C@@H](CC(=O)NCc3ccc(Oc4ccccc4)cc3)O[C@@H](CO)[C@@H]1O2 | -31.8% (inactive)
7 | O=C(Cc1ccccn1)NCC[C@H]1CC[C@H](NC(=O)Nc2ccc(Cl)cc2)[C@H](CO)O1 | -3.5% (inactive)
8 | C[C@H](CO)N1C[C@H](C)[C@H](CN(C)Cc2ccc(Oc3ccccc3)cc2)Oc2ccc(NC(=O)CCCN(C)C)cc2C1=O | 20.6% (inactive)
9 | C[C@H](NC(=O)C[C@H]1C[C@@H]2c3cc(NC(=O)c4cccnc4)ccc3O[C@@H]2[C@@H](CO)O1)c1ccccc1 | -8.72% (inactive)
10 | O=C(C[C@@H]1C[C@H]2c3cc(NS(=O)(=O)c4ccc(F)cc4)ccc3O[C@H]2[C@@H](CO)O1)NC1CCCCC1 | -3.73% (inactive)
11 | C[C@@H](NC(=O)C[C@@H]1C=C[C@@H](NC(=O)Cc2ccccn2)[C@@H](CO)O1)c1ccccc1 | -4.92% (inactive)
12 | C[C@H](NC(=O)C[C@H]1C=C[C@H](NC(=O)Cc2ccccn2)[C@@H](CO)O1)c1ccccc1 | -2.25% (inactive)
13 | CO[C@H]1CN(C)C(=O)c2ccc(NC(=O)C3CC3)cc2OC[C@H](C)N(C(=O)c2ccccn2)C[C@H]1C | -5.44% (inactive)
14 | CO[C@H](CN(C)S(=O)(=O)c1cccc(Cl)c1)[C@@H](C)CN([C@H](C)CO)S(=O)(=O)c1ccc(Cl)cc1 | -1.32% (inactive)
15 | O=C(C[C@@H]1C[C@@H]2c3cc(NC(=O)c4cccnc4)ccc3O[C@@H]2[C@H](CO)O1)NCC(F)(F)F | -2.45% (inactive)
16 | C[C@H](NC(=O)C[C@H]1C=C[C@H](NC(=O)Cc2ccccn2)[C@H](CO)O1)c1ccccc1 | 3.06% (inactive)
17 | C[C@H]1CN([C@@H](C)CO)C(=O)c2c(c3ccccc3n2C)-c2ccccc2CO[C@@H]1CN(C)C(=O)Nc1ccc(F)cc1 | 1.28% (inactive)
18 | C[C@@H]1CN([C@@H](C)CO)C(=O)Cc2cc(NC(=O)Cc3ccccc3)ccc2O[C@@H]1CN(C)Cc1ccc(C(F)(F)F)cc1 | 26.6% (inactive)
19 | COc1cccc(S(=O)(=O)N(C)C[C@@H]2Oc3cc(C4=CCCCC4)ccc3S(=O)(=O)N([C@@H](C)CO)C[C@H]2C)c1 | -6.23% (inactive)
20 | O=C(C[C@H]1C[C@@H]2c3cc(NS(=O)(=O)c4ccc(F)cc4)ccc3O[C@@H]2[C@H](CO)O1)NC1CCCCC1 | -5.14% (inactive)
21 | O=C(Cc1ccccn1)NCC[C@H]1CC[C@@H](NC(=O)Nc2ccc(Cl)cc2)[C@@H](CO)O1 | -6.43% (inactive)
22 | C[C@H](NC(=O)C[C@@H]1C=C[C@@H](NC(=O)Cc2ccccn2)[C@H](CO)O1)c1ccccc1 | -3.22% (inactive)
23 | C[C@@H]1CN([C@@H](C)CO)C(=O)c2c(c3ccccc3n2C)-c2ccccc2CO[C@@H]1CN(C)C(=O)Nc1ccc(F)cc1 | 3.56% (inactive)

Row | Structure (SMILES) | activity change, negative = inhibition
24 | C[C@H]1CN([C@@H](C)CO)C(=O)Cc2cc(NC(=O)Cc3ccccc3)ccc2O[C@@H]1CN(C)Cc1ccc(C(F)(F)F)cc1 | 13.6% (inactive)
25 | C[C@H](NC(=O)C[C@@H]1C=C[C@H](NC(=O)Cc2ccccn2)[C@@H](CO)O1)c1ccccc1 | -2.15% (inactive)
26 | C[C@@H](NC(=O)C[C@@H]1C=C[C@H](NC(=O)Cc2ccccn2)[C@H](CO)O1)c1ccccc1 | -2.15% (inactive)
27 | O=C(C[C@@H]1C[C@@H]2c3cc(NS(=O)(=O)c4ccc(F)cc4)ccc3O[C@@H]2[C@H](CO)O1)NC1CCCCC1 | 12.6% (inactive)
28 | COc1cccc(S(=O)(=O)N(C)C[C@@H]2Oc3cc(C4=CCCCC4)ccc3S(=O)(=O)N([C@H](C)CO)C[C@H]2C)c1 | -5.06% (inactive)
29 | CS(=O)(=O)Nc1ccc2c(c1)[C@@H]1C[C@H](CC(=O)NCC3CC3)O[C@H](CO)[C@@H]1O2 | 6.19% (inactive)
30 | O=C(Cc1ccccn1)NCC[C@@H]1CC[C@H](NC(=O)Nc2ccc(Cl)cc2)[C@@H](CO)O1 | 0.116% (inactive)
31 | O=C(Cc1ccccn1)NCC[C@H]1CC[C@@H](NC(=O)Nc2ccc(Cl)cc2)[C@H](CO)O1 | -8.81% (inactive)
32 | COc1ccccc1CNC(=O)C[C@H]1C[C@@H]2c3cc(NC(=O)CN(C)C)ccc3O[C@@H]2[C@@H](CO)O1 | -0.186% (inactive)
33 | COc1cccc(S(=O)(=O)N(C)C[C@@H]2Oc3cc(C4=CCCCC4)ccc3S(=O)(=O)N([C@@H](C)CO)C[C@@H]2C)c1 | 17.7% (inactive)
34 | O=C(Cc1ccccn1)NCC[C@H]1CC[C@H](NC(=O)Nc2ccc(Cl)cc2)[C@@H](CO)O1 | -0.241% (inactive)
35 | C[C@@H](NC(=O)C[C@H]1C=C[C@H](NC(=O)Cc2ccccn2)[C@H](CO)O1)c1ccccc1 | 3.96% (inactive)
36 | O=C(Nc1ccc(C(F)(F)F)cc1)Nc1ccc2c(c1)[C@H]1C[C@@H](CC(=O)N3CCc4ccccc4C3)O[C@@H](CO)[C@H]1O2 | 0.365% (inactive)
37 | COc1cccc(S(=O)(=O)N(C)C[C@H]2Oc3cc(C4=CCCCC4)ccc3S(=O)(=O)N([C@H](C)CO)C[C@H]2C)c1 | 26.9% (inactive)
38 | C[C@@H]1CN([C@H](C)CO)C(=O)Cc2cc(NC(=O)Cc3ccccc3)ccc2O[C@H]1CN(C)Cc1ccc(C(F)(F)F)cc1 | 2.66% (inactive)
39 | C[C@@H](NC(=O)C[C@H]1C=C[C@@H](NC(=O)Cc2ccccn2)[C@@H](CO)O1)c1ccccc1 | -2.43% (inactive)
40 | COC(=O)C[C@H]1C[C@H]2c3cc(NC(=O)CN(C)C)ccc3O[C@H]2[C@H](CO)O1 | 4.38% (inactive)
41 | C[C@@H]1CN([C@H](C)CO)C(=O)c2c(c3ccccc3n2C)-c2ccccc2CO[C@H]1CN(C)C(=O)Nc1ccc(F)cc1 | 30% (inactive)
42 | C[C@@H](NC(=O)C[C@H]1C=C[C@@H](NC(=O)Cc2ccccn2)[C@H](CO)O1)c1ccccc1 | -3.95% (inactive)
43 | O=C(Cc1ccccn1)NCC[C@@H]1CC[C@@H](NC(=O)Nc2ccc(Cl)cc2)[C@@H](CO)O1 | 2.08% (inactive)

Row | Structure (SMILES) | activity change, negative = inhibition
44 | Cc1noc(C)c1S(=O)(=O)Nc1ccc2c(c1)C(=O)N([C@@H](C)CO)C[C@@H](C)[C@@H](CN(C)Cc1ccc(C(F)(F)F)cc1)OCCCC[C@@H](C)O2 | 30.6% (inactive)
45 | C[C@H](NC(=O)C[C@H]1C=C[C@@H](NC(=O)Cc2ccccn2)[C@H](CO)O1)c1ccccc1 | -0.458% (inactive)
46 | Cc1noc(C)c1S(=O)(=O)Nc1ccc2c(c1)C(=O)N([C@H](C)CO)C[C@H](C)[C@H](CN(C)Cc1ccc(C(F)(F)F)cc1)OCCCC[C@@H](C)O2 | 62.1% (inactive)
47 | O=C(Cc1ccccn1)NCC[C@@H]1CC[C@@H](NC(=O)Nc2ccc(Cl)cc2)[C@H](CO)O1 | 1.95% (inactive)
48 | COc1ccc(NC(=O)N(C)C[C@@H]2Oc3cc(C#CCC(C)C)ccc3S(=O)(=O)N([C@@H](C)CO)C[C@@H]2C)cc1 | 14.6% (inactive)
49 | CS(=O)(=O)Nc1ccc2c(c1)[C@H]1C[C@@H](CC(=O)NCC3CC3)O[C@@H](CO)[C@H]1O2 | -2.86% (inactive)
50 | C[C@H](NC(=O)C[C@@H]1C=C[C@@H](NC(=O)Cc2ccccn2)[C@@H](CO)O1)c1ccccc1 | -1.02% (inactive)
51 | C[C@@H]1CN([C@@H](C)CO)C(=O)Cc2cc(NC(=O)Cc3ccccc3)ccc2O[C@H]1CN(C)Cc1ccc(C(F)(F)F)cc1 | 29.3% (inactive)
52 | C[C@@H](NC(=O)C[C@@H]1C=C[C@@H](NC(=O)Cc2ccccn2)[C@H](CO)O1)c1ccccc1 | -0.205% (inactive)
53 | C[C@H](NC(=O)C[C@H]1C=C[C@@H](NC(=O)Cc2ccccn2)[C@@H](CO)O1)c1ccccc1 | -2.31% (inactive)
54 | COc1cccc(C#Cc2ccc([C@@H]3[C@H](C#N)N(C(=O)c4ccccn4)[C@H]3CO)cc2)c1 | -1.9% (inactive)
55 | COc1ccccc1C(=O)Nc1ccc2c(c1)C(=O)N(C)[C@@H]1CC[C@H](CC(=O)NCCc3ccncc3)O[C@H]1CO2 | -5.47% (inactive)
56 | C[C@@H](NC(=O)C[C@@H]1C=C[C@H](NC(=O)Cc2ccccn2)[C@@H](CO)O1)c1ccccc1 | 4.33% (inactive)
57 | C[C@@H](NC(=O)C[C@H]1C=C[C@H](NC(=O)Cc2ccccn2)[C@@H](CO)O1)c1ccccc1 | 0.235% (inactive)
58 | C[C@@H]1CN([C@H](C)CO)C(=O)c2c(c3ccccc3n2C)-c2ccccc2CO[C@@H]1CN(C)C(=O)Nc1ccc(F)cc1 | -1.47% (inactive)
59 | COC(=O)C[C@@H]1C[C@@H]2c3cc(NC(=O)CN(C)C)ccc3O[C@@H]2[C@@H](CO)O1 | 4.43% (inactive)
60 | O=C(Cc1ccccn1)NCC[C@@H]1CC[C@H](NC(=O)Nc2ccc(Cl)cc2)[C@H](CO)O1 | 1.35% (inactive)
61 | Cc1noc(C)c1S(=O)(=O)Nc1ccc2c(c1)C(=O)N([C@@H](C)CO)C[C@H](C)[C@@H](CN(C)Cc1ccc(C(F)(F)F)cc1)OCCCC[C@@H](C)O2 | -1.88% (inactive)

— PubChem BioAssay AID624369 (Broad Institute, 2012)
